Tests used:
MDA-MB-231 [1] = experiment: Antiproliferative activity against human MDA-MB-231 cells assessed as inhibition of cell growth incubated for 72 hrs by MTT assay; format: functional, cell-based; conditions: MDA-MB-231, 72 h
A549 = experiment: Antiproliferative activity against human A549 cells assessed as inhibition of cell growth incubated for 72 hrs by MTT assay; format: functional, cell-based; conditions: A549, 72 h
HepG2 = experiment: Antiproliferative activity against human HepG2 cells assessed as inhibition of cell growth incubated for 72 hrs by MTT assay; format: functional, cell-based; conditions: HepG2, 72 h
MCF7 [2] = experiment: Antiproliferative activity against human MCF7 cells assessed as inhibition of cell growth incubated for 72 hrs by MTT assay; format: functional, cell-based; conditions: MCF7, 72 h
[3] = target: Cyclin-dependent kinase 12 (Homo sapiens, UniProt Q9NYV4); experiment: Covalent inhibition of CDK12 (unknown origin) using histone H1 as substrate incubated for 10 mins in presence of [gamma-32P]ATP by radioactivity based kinase assay
MDA-MB-231 [4] = experiment: Induction of apoptosis in human MDA-MB-231 cells assessed as apoptosis rate at 10 uM incubated for 24 hrs by annexin V-FITC/propidium iodide staining based flow cytometry analysis; format: functional
MDA-MB-231 [5] = experiment: Cell cycle arrest in human MDA-MB-231 cells assessed as accumulation of cells at G2/M phase at 10 uM incubated for 24 hrs by propidium iodide staining based assay (reference value: 20.49%); format: functional
[6] = target: Cyclin-dependent kinase 9 (Homo sapiens, UniProt P50750); experiment: Covalent inhibition of CDK9 (unknown origin) using histone H1 as substrate incubated for 10 mins in presence of [gamma-32P]ATP by radioactivity based kinase assay
MDA-MB-231 [7] = experiment: Induction of apoptosis in human MDA-MB-231 cells assessed as viable cells at 10 uM incubated for 24 hrs by annexin V-FITC/propidium iodide staining based flow cytometry analysis (reference value: 96.5%); format: functional; conditions: read-out: Activity
[8] = target: Cyclin-dependent kinase 4 (Homo sapiens, UniProt P11802); experiment: Covalent inhibition of CDK4 (unknown origin) using histone H1 as substrate incubated for 10 mins in presence of [gamma-32P]ATP by radioactivity based kinase assay
MDA-MB-231 [9] = experiment: Induction of apoptosis in human MDA-MB-231 cells assessed as late apoptotic cells at 10 uM incubated for 24 hrs by annexin V-FITC/propidium iodide staining based flow cytometry analysis (reference value: 0.113%); format: functional
[10] = target: Cyclin-dependent kinase 6 (Homo sapiens, UniProt Q00534); experiment: Covalent inhibition of CDK6 (unknown origin) using histone H1 as substrate incubated for 10 mins in presence of [gamma-32P]ATP by radioactivity based kinase assay
MDA-MB-231 [11] = experiment: Induction of apoptosis in human MDA-MB-231 cells assessed as early apoptotic cells at 10 uM incubated for 24 hrs by annexin V-FITC/propidium iodide staining based flow cytometry analysis (reference value: 3.39%); format: functional
MDA-MB-231 [12] = experiment: Cell cycle arrest in human MDA-MB-231 cells assessed as accumulation of cells at S phase at 10 uM incubated for 24 hrs by propidium iodide staining based assay (reference value: 25.09%); format: functional
MDA-MB-231 [13] = experiment: Cell cycle arrest in human MDA-MB-231 cells assessed as accumulation of cells at G0/G1 phase at 10 uM incubated for 24 hrs by propidium iodide staining based assay (reference value: 54.43%); format: functional
MDA-MB-231 [14] = experiment: Induction of apoptosis in human MDA-MB-231 cells assessed as necrotic cells at 10 uM incubated for 24 hrs by annexin V-FITC/propidium iodide staining based flow cytometry analysis (reference value: 0.034%); format: functional
[15] = target: T1, Cyclin-dependent kinase 4/6 (Homo sapiens) (UniProt P11802+Q00534); experiment: Inhibition of CDK4/CDK6 signaling pathway in human MDA-MB-231 cells assessed as inhibition of CDK4 expression level at 1 to 8 uM incubated for 24 hrs by western blot assay; format: cell-based; conditions: dose 1-8 µM
[16] = target: T1, Cyclin-dependent kinase 4/6 (Homo sapiens); experiment: Inhibition of CDK4/CDK6 signaling pathway in human MDA-MB-231 cells assessed as reduction of RB phosphorylation at Ser780 residue level at 1 to 8 uM incubated for 24 hrs by western blot assay; format: cell-based; conditions: dose 1-8 µM
[17] = Resistance factor, ratio of IC50 for palbociclib-resistant human MCF7 cells to IC50 for human MCF7 cells; format: functional
MCF7 [18] = experiment: Antiproliferative activity against palbociclib-resistant human MCF7 cells assessed as inhibition of cell growth incubated for 72 hrs by MTT assay; format: functional, cell-based; conditions: MCF7, 72 h
[19] = target: T1, Cyclin-dependent kinase 4/6 (Homo sapiens); experiment: Inhibition of CDK4/CDK6 signaling pathway in human MDA-MB-231 cells assessed as inhibition of CDK6 expression level at 1 to 8 uM incubated for 24 hrs by western blot assay; format: cell-based; conditions: dose 1-8 µM

Chain of Cyclin-dependent kinase 6 (Q00534 whole entry): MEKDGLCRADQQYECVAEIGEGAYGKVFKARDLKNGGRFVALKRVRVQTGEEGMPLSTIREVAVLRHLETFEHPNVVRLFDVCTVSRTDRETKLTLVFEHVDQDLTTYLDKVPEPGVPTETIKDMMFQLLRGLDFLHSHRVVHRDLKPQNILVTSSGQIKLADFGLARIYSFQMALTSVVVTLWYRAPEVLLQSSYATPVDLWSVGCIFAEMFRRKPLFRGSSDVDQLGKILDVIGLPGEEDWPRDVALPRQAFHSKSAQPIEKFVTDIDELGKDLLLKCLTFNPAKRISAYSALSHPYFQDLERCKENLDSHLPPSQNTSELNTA
Chain of Cyclin-dependent kinase 4 (P11802 whole entry): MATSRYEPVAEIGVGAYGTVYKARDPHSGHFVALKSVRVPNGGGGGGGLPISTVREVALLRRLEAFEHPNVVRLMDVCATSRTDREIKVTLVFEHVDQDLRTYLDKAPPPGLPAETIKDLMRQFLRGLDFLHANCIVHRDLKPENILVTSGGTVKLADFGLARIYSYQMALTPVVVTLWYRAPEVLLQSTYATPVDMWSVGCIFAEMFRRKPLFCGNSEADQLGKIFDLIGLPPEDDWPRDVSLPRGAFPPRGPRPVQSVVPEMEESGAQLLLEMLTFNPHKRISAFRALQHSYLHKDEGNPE
T1 sequence (P11802 whole entry, looked up): as the sequence (P11802 whole entry) above
T1 sequence (Q00534 whole entry, looked up): as the sequence (Q00534 whole entry) above
Chain of Cyclin-dependent kinase 12 (Q9NYV4 whole entry): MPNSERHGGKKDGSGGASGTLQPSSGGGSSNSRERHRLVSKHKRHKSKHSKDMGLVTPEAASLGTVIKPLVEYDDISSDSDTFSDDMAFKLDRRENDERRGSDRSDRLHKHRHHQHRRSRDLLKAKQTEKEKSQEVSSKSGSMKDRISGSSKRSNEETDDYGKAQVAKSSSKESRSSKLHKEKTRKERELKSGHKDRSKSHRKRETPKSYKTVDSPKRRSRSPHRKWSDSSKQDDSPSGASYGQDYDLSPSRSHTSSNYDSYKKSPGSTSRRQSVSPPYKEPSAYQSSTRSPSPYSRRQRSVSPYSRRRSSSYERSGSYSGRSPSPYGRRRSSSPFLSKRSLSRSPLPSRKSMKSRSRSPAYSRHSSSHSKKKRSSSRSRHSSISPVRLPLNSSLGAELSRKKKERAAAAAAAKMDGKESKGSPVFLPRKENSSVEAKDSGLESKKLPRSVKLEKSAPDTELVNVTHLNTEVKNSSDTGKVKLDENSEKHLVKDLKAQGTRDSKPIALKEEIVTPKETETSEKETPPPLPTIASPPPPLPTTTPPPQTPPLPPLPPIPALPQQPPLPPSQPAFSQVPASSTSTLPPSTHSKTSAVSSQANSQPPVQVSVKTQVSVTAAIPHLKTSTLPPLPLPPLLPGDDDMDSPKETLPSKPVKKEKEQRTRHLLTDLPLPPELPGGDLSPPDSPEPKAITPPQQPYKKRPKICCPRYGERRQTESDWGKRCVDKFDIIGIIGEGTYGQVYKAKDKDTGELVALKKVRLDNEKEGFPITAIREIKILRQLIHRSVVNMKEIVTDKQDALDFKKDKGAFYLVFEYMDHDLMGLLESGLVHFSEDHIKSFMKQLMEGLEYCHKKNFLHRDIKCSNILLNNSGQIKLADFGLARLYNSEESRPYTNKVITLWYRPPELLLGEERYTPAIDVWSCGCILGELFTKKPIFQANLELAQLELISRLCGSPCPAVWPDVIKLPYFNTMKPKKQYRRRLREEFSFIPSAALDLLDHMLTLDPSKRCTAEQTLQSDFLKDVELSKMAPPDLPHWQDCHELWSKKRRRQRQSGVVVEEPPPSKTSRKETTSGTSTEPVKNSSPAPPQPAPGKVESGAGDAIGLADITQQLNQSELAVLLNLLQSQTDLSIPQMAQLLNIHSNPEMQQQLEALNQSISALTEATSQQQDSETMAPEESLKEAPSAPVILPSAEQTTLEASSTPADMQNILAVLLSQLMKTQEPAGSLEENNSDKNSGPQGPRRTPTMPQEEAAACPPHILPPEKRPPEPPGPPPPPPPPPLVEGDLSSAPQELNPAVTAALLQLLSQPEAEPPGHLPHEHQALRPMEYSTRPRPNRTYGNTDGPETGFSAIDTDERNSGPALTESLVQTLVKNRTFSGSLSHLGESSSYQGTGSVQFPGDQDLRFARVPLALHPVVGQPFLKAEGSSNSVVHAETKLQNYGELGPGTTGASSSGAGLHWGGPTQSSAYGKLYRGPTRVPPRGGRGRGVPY
Chain of Cyclin-dependent kinase 9 (P50750 whole entry): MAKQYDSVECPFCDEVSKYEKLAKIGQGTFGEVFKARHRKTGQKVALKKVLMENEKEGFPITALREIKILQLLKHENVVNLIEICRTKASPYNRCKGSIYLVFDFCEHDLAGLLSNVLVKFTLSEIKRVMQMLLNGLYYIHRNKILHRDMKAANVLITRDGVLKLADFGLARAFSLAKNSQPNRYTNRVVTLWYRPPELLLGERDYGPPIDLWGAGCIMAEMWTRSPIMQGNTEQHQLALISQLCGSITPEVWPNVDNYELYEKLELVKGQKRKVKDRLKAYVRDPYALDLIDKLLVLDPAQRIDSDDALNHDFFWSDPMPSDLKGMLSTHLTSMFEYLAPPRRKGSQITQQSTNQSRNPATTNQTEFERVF

Row | IC50 (MDA-MB-231 [1]) [µM] | IC50 (A549) [µM] | IC50 (HepG2) [µM] | IC50 (MCF7 [2]) [µM] | SMILES | other results
1 | > 20 | 16.5 | > 20 | > 20 | COC(=O)/C=C/CN1CCN(c2ccc(Nc3ncc4c(C)c(C(C)=O)c(=O)n(C5CCCC5)c4n3)nc2)CC1 | 
2 | 8.96 | 14.4 | 11.7 | 2.33 | COc1ccc(/C=C/C(=O)NCC(=O)N2CCN(c3ccc(Nc4ncc5c(C)c(C(C)=O)c(=O)n(C6CCCC6)c5n4)nc3)CC2)cc1OC | 
3 | 6.73 | 14.4 | 11.9 | > 20 | CC(=O)c1c(C)c2cnc(Nc3ccc(N4CCN(C(=O)/C=C/c5ccccc5)CC4)cn3)nc2n(C2CCCC2)c1=O | 
4 | 6.29 | 12.1 | 10.6 | > 20 | COc1cc(/C=C/C(=O)NCC(=O)N2CCN(c3ccc(Nc4ncc5c(C)c(C(C)=O)c(=O)n(C6CCCC6)c5n4)nc3)CC2)ccc1O | 
5 | 5.26 | 9.75 | 9.55 | 0.62 | C=CC(=O)N1CCN(c2ccc(Nc3ncc4c(C)c(C(C)=O)c(=O)n(C5CCCC5)c4n3)nc2)CC1 | IC50 [3]: 0.89 µM; Activity (MDA-MB-231 [4]): 55.5%; Activity (MDA-MB-231 [5]): 13.78%; IC50 [6]: > 1 µM; viability at 10 µM (MDA-MB-231 [7]): 43.8%; IC50 [8]: 0.023 µM; Activity (MDA-MB-231 [9]): 15.2%; IC50 [10]: 0.015 µM; Activity (MDA-MB-231 [11]): 40.3%; Activity (MDA-MB-231 [12]): 26.01%; Activity (MDA-MB-231 [13]): 60.21%; Activity (MDA-MB-231 [14]): 0.689%
6 | 0.51 | 1.55 | 5.1 | 0.48 | CC(=O)c1c(C)c2cnc(Nc3ccc(N4CCN(C(=O)/C=C/C(F)(F)F)CC4)cn3)nc2n(C2CCCC2)c1=O | IC50 [3]: > 1 µM; inhibition [15]: Dose-Dependent Effect; Activity (MDA-MB-231 [4]): 79%; Activity (MDA-MB-231 [5]): 10.14%; IC50 [6]: > 1 µM; inhibition [16]: Dose-Dependent Effect; viability at 10 µM (MDA-MB-231 [7]): 20.6%; Ratio IC50 [17]: 1.1; IC50 [8]: 0.018 µM; IC50 (MCF7 [18]): 0.53 µM; Activity (MDA-MB-231 [9]): 16.7%; IC50 [10]: 0.013 µM; Activity (MDA-MB-231 [11]): 62.3%; inhibition [19]: Dose-Dependent Effect; Activity (MDA-MB-231 [12]): 21.16%; Activity (MDA-MB-231 [13]): 68.69%; Activity (MDA-MB-231 [14]): 0.445%
7 | 8.88 | > 20 | > 20 | > 20 | COc1cc(/C=C/C(=O)N2CCN(c3ccc(Nc4ncc5c(C)c(C(C)=O)c(=O)n(C6CCCC6)c5n4)nc3)CC2)ccc1O | 
8 | 5.68 | 9.57 | 9.11 | 0.42 | CC(=O)c1c(C)c2cnc(Nc3ccc(N4CCN(C(=O)/C(C#N)=C/c5ccccc5)CC4)cn3)nc2n(C2CCCC2)c1=O | IC50 [3]: > 1 µM; Activity (MDA-MB-231 [4]): 63.1%; Activity (MDA-MB-231 [5]): 11.59%; IC50 [6]: > 1 µM; viability at 10 µM (MDA-MB-231 [7]): 36.5%; IC50 [8]: 0.025 µM; Activity (MDA-MB-231 [9]): 11%; IC50 [10]: 0.019 µM; Activity (MDA-MB-231 [11]): 52.1%; Activity (MDA-MB-231 [12]): 24.58%; Activity (MDA-MB-231 [13]): 63.83%; Activity (MDA-MB-231 [14]): 0.425%
9 | 8.21 | > 20 | > 20 | 2.69 | COc1ccc(/C=C/C(=O)NCCCC(=O)N2CCN(c3ccc(Nc4ncc5c(C)c(C(C)=O)c(=O)n(C6CCCC6)c5n4)nc3)CC2)cc1O | 
10 | 5.62 | 8.07 | 9.92 | 0.78 | CC(=O)c1c(C)c2cnc(Nc3ccc(N4CCNCC4)cn3)nc2n(C2CCCC2)c1=O [PALBOCICLIB] | Activity (MDA-MB-231 [4]): 73.7%; Activity (MDA-MB-231 [5]): 11.78%; viability at 10 µM (MDA-MB-231 [7]): 24.8%; IC50 (MCF7 [18]): 5.81 µM; Activity (MDA-MB-231 [9]): 26.1%; Activity (MDA-MB-231 [11]): 47.6%; Activity (MDA-MB-231 [12]): 16.99%; Activity (MDA-MB-231 [13]): 71.23%; Activity (MDA-MB-231 [14]): 1.47%
11 | 8.57 | 17.3 | > 20 | 2.36 | C/C=C/C(=O)N1CCN(c2ccc(Nc3ncc4c(C)c(C(C)=O)c(=O)n(C5CCCC5)c4n3)nc2)CC1 | 
12 | > 20 | 13 | 13.7 | > 20 | COc1ccc(/C=C/C(=O)NCCCC(=O)N2CCN(c3ccc(Nc4ncc5c(C)c(C(C)=O)c(=O)n(C6CCCC6)c5n4)nc3)CC2)cc1OC | 
13 | > 20 | 16.1 | > 20 | 1.85 | COc1ccc(/C=C/C(=O)N2CCN(c3ccc(Nc4ncc5c(C)c(C(C)=O)c(=O)n(C6CCCC6)c5n4)nc3)CC2)cc1OC | 
14 | 7.75 | 17.6 | > 20 | 1.32 | CC(=O)c1c(C)c2cnc(Nc3ccc(N4CCN(C(=O)/C=C/C5CC5)CC4)cn3)nc2n(C2CCCC2)c1=O | 
15 | 7.2 | 11.8 | 10.1 | > 20 | COc1ccc(/C=C/C(=O)NCCC(=O)N2CCN(c3ccc(Nc4ncc5c(C)c(C(C)=O)c(=O)n(C6CCCC6)c5n4)nc3)CC2)cc1OC | 

Reference: ChEMBL document CHEMBL5252647 (Bioorg Med Chem, 2023)
